Laboratory results from patent US20030134859A1 (SANKYO COMPANY, LIMITED, priority 2000, published 2003).

What follows are molecules tested on TNF-α production (assay: Inhibitory activity against cytokine (TNF-α) production in LPS-stimulated RAW264.7 cells). Conditions: 1 μM test compound, LPS 10 ng/mL, 15 hr.
Type: cell-based, mouse
Method in brief: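 Mouse RAW264.7 macrophages (5,000 cells/well) stimulated with 10 ng/mL LPS (final) and treated with test compound at 1 μM final for 15 h at 37 °C. Supernatant mouse TNF-α measured by ELISA; % inhibition = 100−(A−B)/(C−B)×100, using unstimulated and LPS-only controls.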

In the case of “N-[4-(Benzenesulfonylaminophenyl)phenyl]-(2-chloro-5-nitrophenyl)carboxamide [Example 128]”, the “Inhibitory Activity (%) against TNF-α production” value is reported as 28.8%.

Same assay, conditions: Mus musculus, 1 μM test compound, LPS 10 ng/mL, 15 hr

First: O=C(Nc1nc(-c2ccc([N+](=O)[O-])cc2)cs1)c1cc([N+](=O)[O-])ccc1Cl [Example 246, N-[4-(4-Nitrophenyl)thiazol-2-yl]-(2-chloro-5-nitrophenyl)carboxamide]
Second: O=C(Nc1ccc(-c2ccc(NC(=O)c3cc([N+](=O)[O-])ccc3Cl)cc2)cc1)Nc1ccccc1[N+](=O)[O-] [Example 254, N-[4-[4-(2-Nitrophenylaminocarbonylamino)phenyl]phenyl]-(2-chloro-5-nitrophenyl)carboxamide]
The inhibition at 1 µM of the first is lower: 18% for the first, 44.3% for the second.

Same assay, conditions: Mus musculus, RAW264.7, 15 h, 1 μM test compound, LPS 10 ng/mL

First: CCCCN(CCCC)c1ccc(-c2ccc(NC(=O)c3cc([N+](=O)[O-])ccc3Cl)cc2)cc1 [Example 207, N-[4-[4-(N,N-Dibutylamino)phenyl]phenyl]-(2-chloro-5-nitrophenyl)carboxamide]
Second: CCCCN(CCC)c1ccc(-c2ccc(NC(=O)c3cc([N+](=O)[O-])ccc3Cl)cc2)cc1 [Example 208, N-[4-[4-(N-Butyl-N-propylamino)phenyl]phenyl]-(2-chloro-5-nitrophenyl)carboxamide]
The inhibition at 1 µM of the first is higher: 27.1% for the first, 26.3% for the second.

Going from `CCCCN(CC)c1ccc(-c2ccc(NC(=O)c3cc([N+](=O)[O-])ccc3Cl)cc2)cc1` [Example 209, N-[4-[4-(N-Butyl-N-ethylamino)phenyl]phenyl]-(2-chloro-5-nitrophenyl)carboxamide] to `CCCCCN(CC)c1ccc(-c2ccc(NC(=O)c3cc([N+](=O)[O-])ccc3Cl)cc2)cc1` [Example 216, N-[4-[4-(N-Ethyl-N-pentylamino)phenyl]phenyl]-(2-chloro-5-nitrophenyl)carboxamide], the inhibition at 1 µM rises from 26.9% to 30.6%.

First: CCCN(CC)c1ccc(-c2ccc(NC(=O)c3cc([N+](=O)[O-])ccc3Cl)cc2)cc1 [Example 212, N-[4-[4-(N-Ethyl-N-propylamino)phenyl]phenyl]-(2-chloro-5-nitrophenyl)carboxamide]
Second: CCN(CC)c1ccc(-c2ccc(NC(=O)c3cc([N+](=O)[O-])ccc3Cl)cc2)cc1 [Example 217, N-[4-[4-(N,N-Diethylamino)phenyl]phenyl]-(2-chloro-5-nitrophenyl)carboxamide]
The inhibition at 1 µM of the first is higher: 31.2% for the first, 28.7% for the second.

Going from `CCCCCN(CCCCC)c1ccc(-c2ccc(NC(=O)c3cc([N+](=O)[O-])ccc3Cl)cc2)cc1` [Example 214, N-[4-[4-(N,N-Dipentylamino)phenyl]phenyl]-(2-chloro-5-nitrophenyl)carboxamide] to `CCN(C)c1ccc(-c2ccc(NC(=O)c3cc([N+](=O)[O-])ccc3Cl)cc2)cc1` [Example 218, N-[4-[4-(N-Ethyl-N-methylamino)phenyl]phenyl]-(2-chloro-5-nitrophenyl)carboxamide], the inhibition at 1 µM rises from 20.1% to 20.3%.

Going from `O=C(Nc1ccc(-c2ccc(NC(=S)Nc3cccc(F)c3)cc2)cc1)c1cc([N+](=O)[O-])ccc1Cl` [Example 245, N-[4-[4-[(3-Fluorophenyl)aminothiocarbonylamino]phenyl]phenyl]-(2-chloro-5-nitrophenyl)carboxamide] to `O=C(Nc1ccc(-c2ccc(NC(=S)Nc3ccccc3)cc2)cc1)c1cc([N+](=O)[O-])ccc1Cl` [Example 252, N-[4-[4-(Phenylaminothiocarbonylamino)phenyl]phenyl]-(2-chloro-5-nitrophenyl)carboxamide], the inhibition at 1 µM falls from 34.6% to 19.3%.

Compared with `CCOC(=O)NC(=S)Nc1ccc(-c2ccc(NC(=O)c3cc([N+](=O)[O-])ccc3Cl)cc2)cc1` [Example 251, N-[4-[4-(Ethoxycarbonylaminothiocarbonylamino)phenyl]phenyl]-(2-chloro-5-nitrophenyl)carboxamide], `CCS(=O)(=O)N(c1ccc(-c2ccc(NC(=O)c3cc([N+](=O)[O-])ccc3Cl)cc2)cc1)S(=O)(=O)CC` [Example 276, N-[4-[4-(N,N-Diethanesulfonylamino)phenyl]phenyl]-(2-chloro-5-nitrophenyl)carboxamide] is lower in inhibition at 1 µM: 29% for the first, 28.5% for the second.

Molecule `O=C(NC(=S)NCCc1ccc(NC(=O)c2cc([N+](=O)[O-])ccc2Cl)cc1)c1ccccc1` [Example 271, N-[4-(2-Phenylcarbonylaminothiocarbonylaminoethyl)phenyl]-(2-chloro-5-nitrophenyl)carboxamide] has an inhibition at 1 µM of 25.2%.
